Assay results from US12162840B2, “Herbicidal compositions” (SYNGENTA PARTICIPATIONS AG, priority 2018, dated 2024).

What was measured:
Format in all cases: in vivo
Solanum nigrum (SOLNI) = experiment: B1 Post-emergence efficacy Test 1; conditions: post-emergence application, 1000 g/ha, evaluated after 13 days
Summary of the method: (§1)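 Seedlings grown 8 days in soil pots in a glasshouse (24/16 °C day/night, 14 h light, 65% humidity) were sprayed post-emergence at 1000 g/ha from acetone/water (50:50) with 0.5% Tween 20. Percent damage was scored 13 days later on a five-point scale (5=80-100% to 1=0-19%).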

Setaria faberi (SETFA) = experiment: B1 Post-emergence efficacy Test 1; conditions: post-emergence application, 1000 g/ha, evaluated after 13 days
Summary of the method: as §1

[1] = system: Ipomoea hederacea (IPOHE); experiment: B1 Post-emergence efficacy Test 1; conditions: post-emergence application, 1000 g/ha, evaluated after 13 days
Summary of the method: as §1

[2] = system: Amaranthus retoflexus (AMARE); experiment: B1 Post-emergence efficacy Test 1; conditions: post-emergence application, 1000 g/ha, evaluated after 13 days
Summary of the method: as §1

[3] = system: Echinochloa crus-galli (ECHCG); experiment: B1 Post-emergence efficacy Test 1; conditions: post-emergence application, 1000 g/ha, evaluated after 13 days
Summary of the method: as §1

Lolium perenne (LOLPE) = experiment: B1 Post-emergence efficacy Test 1; conditions: post-emergence application, 1000 g/ha, evaluated after 13 days
Summary of the method: as §1

[4] = system: warm season plant species; experiment: B2 Post-emergence efficacy Test 2, warm season plant species; conditions: 15 days after application, 0-100 scale, 0=no damage, 100=total kill; for Herbicidal activity, ABUTH: Abutilon theophrasti; for Herbicidal activity, AMARE: Amaranthus retroflexus; for Herbicidal activity, BIDPI: Bidens pilosa; for Herbicidal activity, BRAPL: Brachiaria plantaginea; for Herbicidal activity, DIGSA: Digitaria sanguinalis; for Herbicidal activity, ECHCG: Echinochloa crus galli; for Herbicidal activity, ELEIN: Eleisine indica; for Herbicidal activity, EPHHL: Euphorbia hetrophylla; for Herbicidal activity, GLXMA: Glycine max; for Herbicidal activity, IPOHE: Ipomoea hederacea; for Herbicidal activity, ORYSA: Orysa sativa; for Herbicidal activity, PANMI: Panicum miliaceum; for Herbicidal activity, SETFA: Setaria faberi; for Herbicidal activity, SIDSP: Sida spinosa; for Herbicidal activity, SORVU: Sorghum bicolour; for Herbicidal activity, XANST: Xanthium strumarium; for Herbicidal activity, ZEAMX: Zea mays
Summary of the method: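 Herbicidal effect rated visually 0 (no damage) to 100 (complete kill) at 15 days post-treatment. Post-emergence spray at 12 days used an IF50 formulation with 0.2% v/v Genapol XO80 adjuvant; glasshouse 24/18 or 20/16 °C, 16 h light, 65% humidity.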

Cc1nn(C)c(=O)c(-c2c(F)ccc(Cl)c2CCc2ccc(Cl)cc2)c1OC(=O)C(C)C [Compound 1.089]
30: Herbicidal activity, DIGSA ([4]; 500 g/Ha) | Herbicidal activity, SETFA ([4]; 60 g/Ha) | Herbicidal activity, ZEAMX ([4]; 60 g/Ha) | Herbicidal activity, ZEAMX ([4]; 125 g/Ha)
50: Herbicidal activity, ORYSA ([4]; 500 g/Ha) | Herbicidal activity, PANMI ([4]; 60 g/Ha)
80: Herbicidal activity, AMARE ([4]; 15 g/Ha) | Herbicidal activity, AMARE ([4]; 30 g/Ha) | Herbicidal activity, BIDPI ([4]; 125 g/Ha) | Herbicidal activity, BIDPI ([4]; 250 g/Ha) | Herbicidal activity, BRAPL ([4]; 15 g/Ha) | Herbicidal activity, ECHCG ([4]; 15 g/Ha) | Herbicidal activity, ECHCG ([4]; 30 g/Ha) | Herbicidal activity, ECHCG ([4]; 60 g/Ha) | Herbicidal activity, ELEIN ([4]; 125 g/Ha) | Herbicidal activity, EPHHL ([4]; 15 g/Ha) | Herbicidal activity, GLXMA ([4]; 60 g/Ha) | Herbicidal activity, PANMI ([4]; 250 g/Ha) | Herbicidal activity, SETFA ([4]; 500 g/Ha) | Herbicidal activity, SIDSP ([4]; 30 g/Ha) | Herbicidal activity, XANST ([4]; 60 g/Ha)
0: Herbicidal activity, DIGSA ([4]; 15 g/Ha) | Herbicidal activity, DIGSA ([4]; 30 g/Ha) | Herbicidal activity, DIGSA ([4]; 60 g/Ha) | Herbicidal activity, ELEIN ([4]; 15 g/Ha) | Herbicidal activity, ELEIN ([4]; 30 g/Ha) | Herbicidal activity, ORYSA ([4]; 15 g/Ha) | Herbicidal activity, ORYSA ([4]; 30 g/Ha) | Herbicidal activity, ORYSA ([4]; 60 g/Ha) | Herbicidal activity, PANMI ([4]; 15 g/Ha) | Herbicidal activity, SETFA ([4]; 15 g/Ha) | Herbicidal activity, SORVU ([4]; 15 g/Ha) | Herbicidal activity, ZEAMX ([4]; 15 g/Ha)
5 (5=80-100%): percentage damage caused to the plant, five point scale, SOLNI (Solanum nigrum (SOLNI)) | percentage damage caused to the plant, five point scale, SETFA (Setaria faberi (SETFA)) | percentage damage caused to the plant, five point scale, IPOHE [1] | percentage damage caused to the plant, five point scale, AMARE [2] | percentage damage caused to the plant, five point scale, ECHCG [3] | percentage damage caused to the plant, five point scale, LOLPE (Lolium perenne (LOLPE))
90: Herbicidal activity, ABUTH ([4]; 30 g/Ha) | Herbicidal activity, AMARE ([4]; 60 g/Ha) | Herbicidal activity, BRAPL ([4]; 30 g/Ha) | Herbicidal activity, BRAPL ([4]; 250 g/Ha) | Herbicidal activity, BRAPL ([4]; 500 g/Ha) | Herbicidal activity, ECHCG ([4]; 125 g/Ha) | Herbicidal activity, ECHCG ([4]; 250 g/Ha) | Herbicidal activity, ELEIN ([4]; 250 g/Ha) | Herbicidal activity, ELEIN ([4]; 500 g/Ha) | Herbicidal activity, PANMI ([4]; 500 g/Ha) | Herbicidal activity, SIDSP ([4]; 60 g/Ha) | Herbicidal activity, SORVU ([4]; 125 g/Ha) | Herbicidal activity, SORVU ([4]; 250 g/Ha) | Herbicidal activity, SORVU ([4]; 500 g/Ha) | Herbicidal activity, XANST ([4]; 30 g/Ha) | Herbicidal activity, XANST ([4]; 125 g/Ha) | Herbicidal activity, XANST ([4]; 250 g/Ha) | Herbicidal activity, ZEAMX ([4]; 250 g/Ha)
10: Herbicidal activity, DIGSA ([4]; 125 g/Ha) | Herbicidal activity, ORYSA ([4]; 125 g/Ha)
20: Herbicidal activity, ORYSA ([4]; 250 g/Ha) | Herbicidal activity, PANMI ([4]; 30 g/Ha) | Herbicidal activity, SETFA ([4]; 30 g/Ha) | Herbicidal activity, ZEAMX ([4]; 30 g/Ha)
40: Herbicidal activity, DIGSA ([4]; 250 g/Ha)
100: Herbicidal activity, ABUTH ([4]; 60 g/Ha) | Herbicidal activity, ABUTH ([4]; 125 g/Ha) | Herbicidal activity, ABUTH ([4]; 250 g/Ha) | Herbicidal activity, ABUTH ([4]; 500 g/Ha) | Herbicidal activity, AMARE ([4]; 125 g/Ha) | Herbicidal activity, AMARE ([4]; 250 g/Ha) | Herbicidal activity, AMARE ([4]; 500 g/Ha) | Herbicidal activity, BIDPI ([4]; 500 g/Ha) | Herbicidal activity, ECHCG ([4]; 500 g/Ha) | Herbicidal activity, EPHHL ([4]; 30 g/Ha) | Herbicidal activity, EPHHL ([4]; 60 g/Ha) | Herbicidal activity, EPHHL ([4]; 125 g/Ha) | Herbicidal activity, EPHHL ([4]; 250 g/Ha) | Herbicidal activity, EPHHL ([4]; 500 g/Ha) | Herbicidal activity, GLXMA ([4]; 250 g/Ha) | Herbicidal activity, GLXMA ([4]; 500 g/Ha) | Herbicidal activity, IPOHE ([4]; 15 g/Ha) | Herbicidal activity, IPOHE ([4]; 30 g/Ha) | Herbicidal activity, IPOHE ([4]; 60 g/Ha) | Herbicidal activity, IPOHE ([4]; 125 g/Ha) | Herbicidal activity, IPOHE ([4]; 250 g/Ha) | Herbicidal activity, IPOHE ([4]; 500 g/Ha) | Herbicidal activity, SIDSP ([4]; 125 g/Ha) | Herbicidal activity, SIDSP ([4]; 250 g/Ha) | Herbicidal activity, SIDSP ([4]; 500 g/Ha) | Herbicidal activity, XANST ([4]; 500 g/Ha) | Herbicidal activity, ZEAMX ([4]; 500 g/Ha)
70: Herbicidal activity, ABUTH ([4]; 15 g/Ha) | Herbicidal activity, BIDPI ([4]; 15 g/Ha) | Herbicidal activity, BIDPI ([4]; 60 g/Ha) | Herbicidal activity, ELEIN ([4]; 60 g/Ha) | Herbicidal activity, GLXMA ([4]; 30 g/Ha) | Herbicidal activity, SORVU ([4]; 60 g/Ha)
60: Herbicidal activity, BIDPI ([4]; 30 g/Ha) | Herbicidal activity, PANMI ([4]; 125 g/Ha) | Herbicidal activity, SETFA ([4]; 125 g/Ha) | Herbicidal activity, SETFA ([4]; 250 g/Ha) | Herbicidal activity, SORVU ([4]; 30 g/Ha)
